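Dose response: 5 concentrations. Exposure: 48 h. Format: 96-well plates. Endpoint: linear interpolation; highest concentration if not reached. At the GI50, growth is halved.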 Activity calls are given as the source filed them. No stated cut-off is given here; in the data, active = GI50 up to about 1.1 µM and inactive = higher.
Key:
Experiment in all cases: NCI-60 cell line screen, 48 h
MDA-N = system: MDA-N
BT-549 = system: BT-549
RPMI-8226 = system: RPMI-8226
OVCAR-5 = system: OVCAR-5
HL-60 = system: HL-60
HCC 2998 = system: HCC 2998
MOLT-4 = system: MOLT-4
NCI-H23 = system: NCI-H23
UACC-257 = system: UACC-257
Malme-3M = system: Malme-3M
OVCAR-8 = system: OVCAR-8
NCI-H460 = system: NCI-H460
PC-3 = system: PC-3
HOP-92 = system: HOP-92
SK-OV-3 = system: SK-OV-3
EKVX = system: EKVX
SK-MEL-28 = system: SK-MEL-28
Hs-578T = system: Hs-578T
SF-295 = system: SF-295
SNB-75 = system: SNB-75

Structure (SMILES) | GI50 (MDA-N) | GI50 (BT-549) | GI50 (RPMI-8226) | GI50 (OVCAR-5) | GI50 (HL-60) | GI50 (HCC 2998) | GI50 (MOLT-4) | GI50 (NCI-H23) | GI50 (UACC-257) | GI50 (Malme-3M) | GI50 (OVCAR-8) | GI50 (NCI-H460) | GI50 (PC-3) | GI50 (HOP-92) | GI50 (SK-OV-3) | GI50 (EKVX) | GI50 (SK-MEL-28) | GI50 (Hs-578T) | GI50 (SF-295) | GI50 (SNB-75)
COC(=O)c1c(O)ccc2c1c1c(n2Cc2ccccn2)C(=O)c2ccccc2C1=O | 97.5 µM (inactive) | > 100 µM (inactive) | 25.3 µM (inactive) | 56.8 µM (inactive) | 62.2 µM (inactive) | 13.2 µM (inactive) | 94.8 µM (inactive) | 57.1 µM (inactive) | > 100 µM (inactive) | 31.2 µM (inactive) | 50.4 µM (inactive) | 40.3 µM (inactive) | 58.7 µM (inactive) | 26.5 µM (inactive) | 21.7 µM (inactive) | 36.7 µM (inactive) | 19.2 µM (inactive) | 46.1 µM (inactive) | 20.2 µM (inactive) | 
CC(C)C1=CC(=O)[C@@](C)(C2[C@H](O)C[C@@]3(C)[C@@H]4CC=C5[C@@H](CC[C@@H](OC6OCC(O)C(O)C6OC6OC(C)C(O)C(O)C6O)C5(C)C)[C@]4(C)C(=O)C[C@]23C)O1 (stereo not given in full) | > 100 µM (inactive) | > 100 µM (inactive) | > 100 µM (inactive) | > 100 µM (inactive) |  | > 100 µM (inactive) | > 100 µM (inactive) | > 100 µM (inactive) |  | > 100 µM (inactive) | > 100 µM (inactive) | > 100 µM (inactive) | > 100 µM (inactive) | > 100 µM (inactive) | > 100 µM (inactive) | > 100 µM (inactive) | > 100 µM (inactive) | > 100 µM (inactive) | 59 µM (inactive) | > 100 µM (inactive)
COC(=O)[C@@H]1c2cc3c(c(O)c2[C@@H](OC2OC(C)C(OC)C(C)(OC)C2OC)C[C@]1(C)O)C(=O)c1c(O)cc2c(c1C3=O)O[C@H]1O[C@]2(C)[C@H](O)[C@@H](N(C)C)[C@@H]1O (stereo not given in full) | 0.0471 µM (active) | 0.0197 µM (active) | 0.00243 µM (active) | 0.0815 µM (active) | 0.0148 µM (active) | 0.00433 µM (active) | 0.0146 µM (active) | 0.00581 µM (active) | 0.0143 µM (active) | 0.00453 µM (active) | 0.00508 µM (active) | 0.00377 µM (active) | 0.0468 µM (active) | 0.00532 µM (active) | 0.0426 µM (active) | 0.0266 µM (active) | 0.00556 µM (active) | 0.0203 µM (active) | 0.0154 µM (active) | 0.00608 µM (active)
CN(CCCNC(=O)c1n[nH]c2c1ccc1ccccc12)CCCNC(=O)c1n[nH]c2c1ccc1ccccc12 | 2.14 µM (inactive) | 15.6 µM (inactive) |  | 20.4 µM (inactive) | 1.67 µM (inactive) | 1.9 µM (inactive) | 10.4 µM (inactive) | 17.9 µM (inactive) | 4.24 µM (inactive) | 10.3 µM (inactive) | 16.4 µM (inactive) | 18 µM (inactive) | 14.7 µM (inactive) | 14.6 µM (inactive) | 18.1 µM (inactive) | 21.4 µM (inactive) | 2.09 µM (inactive) | 16.8 µM (inactive) | 17.3 µM (inactive) | 16.3 µM (inactive)
[O-][S+]1SC(=S)C2C=CC=NC21 (stereo not given) | 14.7 µM (inactive) | 19 µM (inactive) | 32.1 µM (inactive) | 15.3 µM (inactive) | > 100 µM (inactive) | 15.5 µM (inactive) | 16.4 µM (inactive) | 18.6 µM (inactive) | 15.4 µM (inactive) | 17.3 µM (inactive) | 25 µM (inactive) | 17.4 µM (inactive) | 16.8 µM (inactive) | 15.8 µM (inactive) | 32.6 µM (inactive) | 13.2 µM (inactive) | > 100 µM (inactive) | 20.7 µM (inactive) | 22.4 µM (inactive) | 18.7 µM (inactive)
CCOC(=O)/C(=C\c1ccc(F)cc1)C(C)=O | 37.8 µM (inactive) | 21.5 µM (inactive) | 21.8 µM (inactive) | 58.6 µM (inactive) | 19.5 µM (inactive) | 13.5 µM (inactive) | 26.5 µM (inactive) | 21.2 µM (inactive) | 19.2 µM (inactive) | 19.2 µM (inactive) | 29.2 µM (inactive) | 32.5 µM (inactive) | 17.1 µM (inactive) | 15.1 µM (inactive) | 35 µM (inactive) | 22.3 µM (inactive) |  | 36.1 µM (inactive) | 29.5 µM (inactive) | 25.1 µM (inactive)
CC(=O)Oc1ccc2c(c1)CC[C@@H]1C2[C@@H](O[N+](=O)[O-])C[C@@]2(C)C1CC[C@@H]2O (stereo not given in full) | 5.83 µM (inactive) | 62.4 µM (inactive) | 21 µM (inactive) | 33 µM (inactive) | 9.2 µM (inactive) | 10.6 µM (inactive) | 24.5 µM (inactive) | 42.9 µM (inactive) | 67.5 µM (inactive) | 32.1 µM (inactive) | 31.3 µM (inactive) | 35.3 µM (inactive) | 47.3 µM (inactive) | > 88.1 µM (inactive) | 62.5 µM (inactive) | 16.8 µM (inactive) | 48.9 µM (inactive) | 14.4 µM (inactive) | 35.5 µM (inactive) | 45.7 µM (inactive)

Source: ChEMBL document CHEMBL1201862, “PubChem BioAssay data set” (2004)
